Entries after “also recorded” stand apart in the source; their conditions may differ.
Legend:
CLC-3 channels = target: T1, CLC-3 channels (Rattus norvegicus, UniProt P51792); test: Whole-cell Cl− currents in CLC-3-transfected HEK293T cells; format: cell-based
T1 construct: host or cells: HEK293T
T1 sequence (P51792 1-760 isoform P51792-2): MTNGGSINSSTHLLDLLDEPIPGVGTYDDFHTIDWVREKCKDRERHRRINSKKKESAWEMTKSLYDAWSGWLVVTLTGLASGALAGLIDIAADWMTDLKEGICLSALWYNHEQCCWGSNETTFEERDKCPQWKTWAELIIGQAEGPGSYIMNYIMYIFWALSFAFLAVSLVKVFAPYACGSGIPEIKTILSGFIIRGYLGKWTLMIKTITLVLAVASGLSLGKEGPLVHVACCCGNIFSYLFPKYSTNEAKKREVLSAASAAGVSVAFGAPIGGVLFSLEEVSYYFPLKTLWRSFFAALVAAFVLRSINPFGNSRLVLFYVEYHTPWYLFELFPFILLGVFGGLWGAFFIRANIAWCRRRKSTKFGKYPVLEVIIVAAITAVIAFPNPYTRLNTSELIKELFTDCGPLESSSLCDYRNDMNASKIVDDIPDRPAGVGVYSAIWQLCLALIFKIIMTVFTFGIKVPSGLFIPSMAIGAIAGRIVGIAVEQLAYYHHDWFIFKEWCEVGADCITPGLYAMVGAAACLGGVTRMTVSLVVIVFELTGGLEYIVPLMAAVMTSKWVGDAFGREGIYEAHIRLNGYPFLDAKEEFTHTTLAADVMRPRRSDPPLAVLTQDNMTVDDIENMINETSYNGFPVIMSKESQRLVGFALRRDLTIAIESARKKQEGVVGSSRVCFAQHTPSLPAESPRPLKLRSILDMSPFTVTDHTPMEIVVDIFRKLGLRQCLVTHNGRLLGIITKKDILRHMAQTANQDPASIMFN

hippocampal slices = test: Field potential recording of epileptiform activity in hippocampal slices (CA3 pyramidal layer); format: cell-based, mouse
[1] = test system: cultured cortical neurons; test: Epileptiform burst activity in cultured cortical neurons (whole-cell patch-clamp); format: cell-based, mouse
Method: Mouse cortical neurons were prepared from newborn C57BL/6 mice as previously described. Qi et al., “Cyclothiazide induces robust epileptiform activity in rat hippocampal neurons both in vitro and in vivo” The Journal Of Physiology 571:605-618 (2006). Briefly, the newborn mouse cerebral cortices were dissected out in ice-cold HEPES-buffered saline solution, washed and digested with 0.05% trypsin-EDTA at 37° C. for 20 min. After deactivation of trypsin with serum-containing medium, cells were centrifuged, resuspended, and seeded on a monolayer of cortical astrocytes at a density of 10,000 cells/cm^2 in 24-well plates. The neuronal culture medium contained MEM (500 ml, Invitrogen), 5% fetal bovine serum (Atlanta Biologicals), 10 ml B-27 supplement (Invitrogen), 100 mg NaHCO3, 2 mM Glutamax (Invitrogen), and 25 units/ml penicillin & streptomycin. AraC (4 μM, Sigma) was added to inhibit the excessive proliferation of astrocytes. Cell cultures were maintained in a 5% CO2-humidified incubator at 37° C. for 14-21 days.
The cultured neurons were placed in the recording chamber with continuous perfusion of the bath solution consisting of (mM): 128 NaCl, 10 Glucose, 25 HEPES, 5 KCl, 2 CaCl2, 1 MgSO4, pH 7.3 adjusted with NaOH, and osmolarity ˜300 mOsm. For recording spontaneous firing under current clamp mode, pipettes were filled with an internal solution containing (in mM): 125 K-gluconate, 5 Na-phosphocreatine, 5 EGTA, 10 KCl, 10 HEPES, 4 Mg-ATP, 0.3 Na-GTP, 280-290 mOsm, pH 7.3 adjusted with KOH. Epileptiform activity in cultured neurons was induced either by 10 μM CTZ for 24 h, or 1 μM KA for 2 h, or 50 μM 4-AP for 2 h. The burst activity was defined as previously described. Qi et al., “Cyclothiazide induces robust epileptiform activity in rat hippocampal neurons both in vitro and in vivo” The Journal Of Physiology 571:605-618 (2006). In brief, at least five consecutive action potentials overlaying on top of the large depolarization shift (≥10 mV depolarization and ≥300 ms in duration).

[2] = 0 Mg2+ aCSF, WT slices P8-12 pre-treated with 20 mM NaGcA

O=C([O-])[C@H](O)[C@@H](O)[C@H](O)[C@H](O)CO.[Na+] [NaGcA, D-gluconic acid sodium salt]
CLC-3-mediated Cl− currents (CLC-3 channels; 20 mM NaGcA, at +90 mV): 544±59 pA | CLC-3 channel-mediated Cl− currents (inhibition) (CLC-3 channels; 20 mM NaGcA, sodium salt): significantly inhibited; also recorded: significantly reduced | CLC-3-mediated Cl− currents after washout of NaGcA (CLC-3 channels; after washout, at +90 mV): 925±124 pA | reduction of average power of epileptic activity (hippocampal slices; 0 Mg2+ aCSF, 20 mM NaGcA, P6-8): 59.6±4.3% | reduction of average power of epileptic activity (hippocampal slices; 0 Mg2+ aCSF, 20 mM NaGcA, P10-12): 62.1±3.8% | reduction of average power of epileptic activity (hippocampal slices; 0 Mg2+ aCSF, 20 mM NaGcA, P21-33): 23.8±4.1% | burst latency (hippocampal slices; [2]): significantly prolonged | total burst activity (hippocampal slices; [2]): significantly reduced | epileptic activity induced by 4-AP (hippocampal slices; 50 μM 4-AP, neonatal slices, 20 mM NaGcA, sodium salt): significantly reduced; also recorded: attenuated | epileptiform activity induced by 0 Mg2+ aCSF, neonatal slices (hippocampal slices; 20 mM NaGcA, P6-12, sodium salt): strong inhibition; also recorded: strong efficacy; also recorded: dramatically reduced; also recorded: potent anti-epileptic effect; also recorded: inhibited | epileptiform activity induced by 0 Mg2+ aCSF, older animals (hippocampal slices; 20 mM NaGcA, P21-33 (P26), sodium salt): modest effect; also recorded: much less inhibition; also recorded: much smaller; also recorded: moderate anti-epileptic discharges effect; also recorded: less effect | reduction of the power amplitude (hippocampal slices; 4-AP (50 μM) model, neonatal slices, 20 mM NaGcA): 70.2±5.3% | reduction of the power amplitude (hippocampal slices; high K+ (8.5 mM) model, neonatal slices, 20 mM NaGcA): 70.8±4.9% | epileptic burst activity in high K+ model (hippocampal slices; high K+ aCSF (8.5 mM), neonatal slices, 20 mM NaGcA, sodium salt): remarkably suppressed; also recorded: blocked; also recorded: dramatically reduced | KA-induced epileptiform burst activity ([1]; 1 μM KA for 2 hrs, 10 mM NaGcA, sodium salt): greatly suppressed; also recorded: dramatically suppressed | neurons showing epileptiform activity after CTZ co-treatment ([1]; 10 μM CTZ together with 10 mM NaGcA, 3 out of 17 neurons): 18% | 4-AP-induced epileptiform activity ([1]; 50 μM 4-AP for 2 hrs, 10 mM NaGcA, sodium salt): completely blocked; also recorded: obviously suppressed | CTZ-induced epileptiform burst activity ([1]; 10 mM NaGcA, acute application): completely blocked | spontaneous epileptiform activity (burst action potentials) ([1]; 5-20 mM NaGcA in bath solution (FIG. 1A: 20 mM), sodium salt): inhibited spontaneous epileptiform activity; also recorded: stopped immediately | induction of epileptiform activity by CTZ ([1]; co-application of 10 μM CTZ and 10 mM NaGcA during induction, sodium salt): great reduction; also recorded: lack of burst activity | average frequency and duration of epileptiform bursts ([1]; neurons co-treated with CTZ and NaGcA (5 and 10 mM)): significantly reduced

From patent publication US11666640B2, “Glucose oxidase compositions as a neonate anticonvulsant” (PENN STATE RESEARCH FOUNDATION, priority 2018, dated 2023)
